One assay has as its system MDRPA CCARM 2003. Format: cell-based, multidrug-resistant P. aeruginosa. The conditions noted are these: broth microdilution, 37°C, 16 h, three independent experiments in triplicate, SD 14.0%. On the technique in general: Dilution methods test growth across graded concentrations, often in twofold steps.
The subject of another assay is P. aeruginosa KCTC1637. Format: cell-based, Pseudomonas aeruginosa. The conditions noted are these: P. aeruginosa KCTC1637; broth microdilution, 37°C, 16 h; three independent experiments in triplicate, SD 14.0%.
The next assay deals with MDREC CCARM 1238. It is filed as cell-based, multidrug-resistant E. coli. To be noted: broth microdilution, 37°C, 16 h, three independent experiments in triplicate, SD 14.0%.
The test system of the next assay is MDRPA CCARM 2163. It is filed as cell-based, multidrug-resistant P. aeruginosa. The conditions noted are these: broth microdilution, 37°C, 16 h, three independent experiments in triplicate, SD 14.0%.
The test system of another assay is P. aeruginosa KCTC2513. Format: cell-based, Pseudomonas aeruginosa. To be noted: P. aeruginosa KCTC2513; broth microdilution, 37°C, 16 h; three independent experiments in triplicate, SD 14.0%.
In a further assay the test system is B. subtilis KCTC1021. It is filed as cell-based, Bacillus subtilis. The conditions noted are these: B. subtilis KCTC1021; broth microdilution, 37°C, 16 h; three independent experiments in triplicate, SD 14.0%.
In another assay the test system is MDRPA CCARM 2002. Format: cell-based, multidrug-resistant P. aeruginosa. To be noted: broth microdilution, 37°C, 16 h, three independent experiments in triplicate, SD 14.0%.
Another assay concerns MRSA CCARM3089. Format: cell-based, Methicillin-resistant S. aureus. To be noted: MRSA CCARM3089; broth microdilution, 37°C, 16 h; three independent experiments in triplicate, SD 14.0%.
A further assay has as its system MRSA CCARM 3126. It is filed as cell-based, Methicillin-resistant S. aureus. To be noted: MRSA CCARM 3126; broth microdilution, 37°C, 16 h; three independent experiments in triplicate, SD 14.0%.
A further assay concerns B. subtilis KCTC3068. Format: cell-based, Bacillus subtilis. To be noted: B. subtilis KCTC3068; broth microdilution, 37°C, 16 h; three independent experiments in triplicate, SD 14.0%.
In assay [1] the test system is Standard bacterial strains. Format: cell-based. The conditions noted are these: average over the 14 standard bacterial strains of Table 2.
The next assay concerns B. subtilis KCTC1022. It is filed as cell-based, Bacillus subtilis. The conditions noted are these: B. subtilis KCTC1022; broth microdilution, 37°C, 16 h; three independent experiments in triplicate, SD 14.0%.
Another assay concerns MDRAB CCARM 12036. Format: cell-based, multidrug-resistant Acinetobacter baumanii. The conditions noted are these: broth microdilution, 37°C, 16 h, three independent experiments in triplicate, SD 14.0%.

Where no end group is shown, it is not given here.

As a reminder, the MIC is the smallest concentration in the dilution series that meets the test's criterion for growth inhibition. A low value points to inhibition by little substance.

Description for B. subtilis KCTC1021: (§1) The antimicrobial activities of the peptides against selected organisms, including three Gram-positive, three Gram-negative, and five antibiotic-resistant bacteria, were determined using a broth microdilution assay. Briefly, single colonies of bacteria and fungi were inoculated into Luria-Bertani (LB) medium and cultured overnight at 37°C. An aliquot of the culture was transferred to 10 mL of fresh LB and incubated for an additional 3–5 h at 37°C until it reached the mid-logarithmic phase. Two-fold serial dilutions of the peptides in 1% peptone were prepared. The serial dilutions (100 µL) were added to 100 µL of cells (2×10^6 colony-forming units (CFU)/mL) in 96-well microtiter plates and incubated at 37°C for 16 h. […] MIC values were calculated as the average of triplicate measurements from three independent assays.
Description for B. subtilis KCTC3068: as §1
Description for MDRAB CCARM 12036: as §1
Description for MDREC CCARM 1238: as §1
Excerpt for MRSA CCARM 3126: Escherichia coli KCTC 1682, E. coli KCTC 2593, E. coli KCTC 2571, Salmonella typhimurium KCTC 1926, Pseudomonas aeruginosa KCTC 1637, P. aeruginosa KCTC 2004, P. aeruginosa KCTC 2513, Bacillus subtilis KCTC 3068, B. subtilis KCTC 1021, B. subtilis KCTC 1022, Staphylococcus epidermidis KCTC 1917, Staphylococcus aureus KCTC 1621, S. aureus KCTC 1916, and S. aureus KCTC 3881 were purchased from the Korean Collection for Type Cultures, Korea Research Institute of Bioscience & Biotechnology (Taejon, Korea). Methicillin-resistant S. aureus (MRSA) (CCARM 3089, CCARM 3090, CCARM 3108, CCARM 3114, and CCARM 3126), multidrug-resistant E. coli (MDREC) (CCARM 1229 and CCARM 1238), multidrug-resistant S. typhimurium (MDRST) (CCARM 8003, CCARM 8007, and CCARM 8009), multidrug-resistant Acinetobacter baumanii (MDRAB) (CCARM 12005, CCARM 12035, CCARM 12036, CCARM 12037), and multidrug-resistant P. aeruginosa (MDRPA) (CCARM 2002, CCARM 2003, CCARM 2095, and CCARM 2163) were obtained from the Culture Collection of Antibiotic-Resistant Microbes (CCARM) at Seoul Women’s University in Korea. The antimicrobial activities of the peptides against selected organisms, including three Gram-positive, three Gram-negative, and five antibiotic-resistant bacteria, were determined using a broth microdilution assay. Briefly, single colonies of bacteria and fungi were inoculated into Luria-Bertani (LB) medium and cultured overnight at 37°C. An aliquot of the culture was transferred to 10 mL of fresh LB and incubated for an additional 3–5 h at 37°C until it reached the mid-logarithmic phase. Two-fold serial dilutions of the peptides in 1% peptone were prepared. The serial dilutions (100 µL) were added to 100 µL of cells (2×10^6 colony-forming units (CFU)/mL) in 96-well microtiter plates and incubated at 37°C for 16 h. […] MIC values were calculated as the average of triplicate measurements from three independent assays.
Description for P. aeruginosa KCTC1637: as §1

As to “FFHHIFRGIVHVGKTIHRLVTG [Pis-1, reference compound]”, the MIC against MDRPA CCARM 2003 stood at 2.0 µM; against P. aeruginosa KCTC1637, 2.0 µM; against MDREC CCARM 1238, 4.0 µM; against MDRPA CCARM 2163, 2.0 µM; in the assay on P. aeruginosa KCTC2513, 2.0 µM; in the assay with B. subtilis KCTC1021, 2.0 µM. For the same sequence, the minimum inhibitory concentration (MIC) was 2.0 µM in the assay with MDRPA CCARM 2002; 8.0 µM in the assay on MRSA CCARM3089; 4.0 µM against MRSA CCARM 3126; 1.0 µM in the assay on B. subtilis KCTC3068; 1.0 µM in the assay on B. subtilis KCTC1022; 2.0 µM with MDRAB CCARM 12036. In addition, the “Average MIC” value in assay [1] amounted to 1.5 µM.

Values taken from publication PMC4256409, “Role of Phenylalanine and Valine^10 Residues in the Antimicrobial Activity and Cytotoxicity of Piscidin-1” (PLoS ONE, 2014).
